Results as given in ChEMBL document CHEMBL3045899, “New asperxanthone and asperbiphenyl from the marine fungus Aspergillus sp” (2009).

Tested on: Tobacco mosaic virus
Assay: Inhibitory activity against Tobacco mosaic virus (TMV) inoculated in Nicotiana tabacum L. cv.K326 leaf assessed as inhibition of virus multiplication at 0.2 mg/ml measured by leaf disk method (reference value: 0%)
Format: functional

`CCCCCCCCCC/C=C/C=C/CCCC(=O)OCC(O)CO` (centres undefined) gave an inhibition at 200 µg/mL of 12.5%.
With `CCCCCCC/C=C/C=C/CCCC(=O)OC(CO)CO` the inhibition at 200 µg/mL was 14.2%.
`CCCCCCCC/C=C/C=C/CCCCCCCCCCCCCC/C=C/C=C/CCCC(=O)OC(CO)CO` gave an inhibition at 200 µg/mL of 14.3%.
Compound `CCCCCCCCCCCCCCCCCCCCCCCCCC/C=C/C=C/C=C/CCC(=O)OC(CO)CO` has an inhibition at 200 µg/mL of 13.9%.
`COc1cc2oc3cccc(O)c3c(=O)c2c2c1[C@@H]1C=CO[C@@H]1O2` [ASPERXANTHONE] gave an inhibition at 200 µg/mL of 62.9%.
With `Cc1c(O)c(-c2c(O)c(C)c3c(c2O)CO[C@H](C)[C@H]3C)c(O)c2c1[C@@H](C)[C@H](C)OC2` [ASPERBIPHENYL] the inhibition at 200 µg/mL was 35.5%.
`CCCCCCCCCCC/C=C/C=C/CCCC(=O)OCC(O)CO` (centres undefined) gave an inhibition at 200 µg/mL of 14.9%.
`CCCCCCCC/C=C/C=C/CCCCCCCCCCCCCC/C=C/C=C/CCCC(=O)OCC(O)CO` (centres undefined) gave an inhibition at 200 µg/mL of 17.4%.
Work on `CCCCCCCC/C=C/C=C/CCCCCCCCCCCCCCCCCCCCCC(=O)OC(CO)CO` yielded an inhibition at 200 µg/mL of 16.3%.
